In patent US20020031787A1, “Compositions and methods for reducing autoimmunity” (priority 2000, published 2002):
Where no end group is shown, it is not given here.

System: NOD mice
Settings: mouse, in vivo

In the case of “insulin B chain 8-20 amino acid peptide (GSHLVEALYLVCG; ends and bridges not checked; UniProt P01308 32-44, looked up, fragment) [islet cell antigen peptide added to the vaccines]”, the “effect of the vaccines on diabetes when the peptide was added” value is reported as “enhanced”.
